In patent publication US20260083851A1 (AVILAR THERAPEUTICS, INC., priority 2022, published 2026):
Where two headings read alike, the source gives them in different places.

Tests used:
[1] = molecular target: T1, ASGPR (Homo sapiens, UniProt P07306); assay: ASGPR SPR binding
T1 construct: biotin (biotinylated)
T1 sequence (P07306 1-291): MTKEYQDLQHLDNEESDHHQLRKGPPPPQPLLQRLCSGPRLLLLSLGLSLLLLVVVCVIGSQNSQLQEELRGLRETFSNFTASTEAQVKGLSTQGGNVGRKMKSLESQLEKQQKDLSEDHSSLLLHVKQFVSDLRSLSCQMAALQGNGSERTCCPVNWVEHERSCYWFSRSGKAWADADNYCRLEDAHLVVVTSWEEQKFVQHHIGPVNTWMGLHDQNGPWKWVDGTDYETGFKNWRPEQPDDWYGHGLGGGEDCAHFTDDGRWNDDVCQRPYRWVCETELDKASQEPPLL

[2] = molecular target: T2, ASGPR receptor on HepG2 cells (ternary complex with AF488-labeled antibody) (Homo sapiens, UniProt P07306); assay: Ternary complex formation assay (flow cytometry, cell-associated AF488 fluorescence); format: cell-based; conditions: 100 nM AF488-labeled antibody, 1 hour at 4° C.
T2 construct: host or cells: HepG2
T2 sequence (P07306 1-291): T1 sequence (P07306 1-291)
T2 sequence (P07307 1-311 partner): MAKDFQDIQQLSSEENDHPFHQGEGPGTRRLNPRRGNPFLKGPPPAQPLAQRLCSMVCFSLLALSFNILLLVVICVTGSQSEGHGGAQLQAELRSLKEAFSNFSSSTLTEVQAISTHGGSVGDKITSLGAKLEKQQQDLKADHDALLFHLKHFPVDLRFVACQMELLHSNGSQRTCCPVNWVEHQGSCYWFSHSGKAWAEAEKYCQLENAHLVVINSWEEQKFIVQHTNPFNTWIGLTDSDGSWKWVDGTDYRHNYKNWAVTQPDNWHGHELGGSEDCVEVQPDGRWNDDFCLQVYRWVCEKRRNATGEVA

[3] = test system: HepG2 cells; assay: Cellular uptake assay (high-content imaging); format: cell-based, human; conditions: 100 nM AF488-labeled antibody, 6 hours at 37° C.
Description: The cellular uptake assay is designed to measure compound-mediated cellular uptake of fluorescently labeled antibody following ternary complex formation with the ASGPR receptor and endocytosis of the entire complex into cells. The optimal concentration of compound will result in the maximum number of cells with intracellular antibody and is represented as the peak ratio of antibody-positive cells over the total number of cells. As with the ternary complex formation assay, too much or too little compound will result in suboptimal complex formation and fewer cells will have measurable intracellular fluorescence.
Human IgG (Sigma-Aldrich, 14506) was covalently labeled with Alexa Fluor 488 using the Alexa Fluor™ 488 Protein Labeling Kit (Thermo Fisher, A10235) following the manufacturer's instructions. HepG2 cells were plated in DMEM supplemented with 10% FBS at 5,000 cells per well in a 96-well microtiter plate and incubated for approximately 18 hours at 37° C./5% CO2. For studies using human IgG, 100 nM AF488-labeled human IgG antibodies and serial dilutions of IgG-based degrader (0.1% DMSO final concentration) were added to the cells and the mixture was incubated at 37° C. for 6 hours. For studies using DNP, 100 nM AF488-labeled DNP antibodies and serial dilutions of DNP-based degrader (0.1% DMSO final concentration) were added to the cells and the mixture was incubated at 37° C. for 6 hours. HepG2 cells were fixed in 100% methanol at −20° C. for 20 min, washed 3× with PBS, then stained with DAPI (Thermo, Cat #H3570). HepG2 cells were imaged for DAPI and Alexa Fluor 488 using the Operetta CLS, high-content analysis system (PerkinElmer). Data is presented as the ratio of the number of cells positive for hIgG or DNP (AF-488 fluorescence) over the total cell number (measured by DAPI).

[4] = molecular target: IgG; assay: IgG SPR binding; conditions: Table 3, read-out: IgG SPR Binding KD
[5] = Table 3, read-out: ASGPR SPR Binding KD
[6] = Table 3, class symbols, read-out: Ternary Complex EC50
[7] = Homo sapiens, Table 3, class symbols, read-out: Uptake Assay (EC50)
[8] = second table, read-out: ASGPR KD
[9] = the 25th table, class symbols, read-out: TCF EC50
[10] = the 25th table, class symbols, read-out: Uptake EC50

SMILES	Kd [1, 5]	EC50 [2, 6]	EC50 [3, 7]	Kd [4]	EC50 ([3]; Homo sapiens, Table 3, numeric bounds, read-out: Uptake Assay (EC50))	Kd [1, 8]	EC50 [2, 9]	EC50 [3, 10]
CC(C)C[C@@H]1NC(=O)[C@H](Cc2cnc[nH]2)NC(=O)[C@H](Cc2c[nH]c3ccccc23)NC(=O)[C@H](C)NC(=O)[C@@H]2CSSC[C@H](NC(=O)[C@H](Cc3c[nH]c4ccccc34)NC(=O)[C@H](C(C)C)NC(=O)[C@H](CC(C)C)NC(=O)[C@H](CCC(=O)O)NC(=O)CNC1=O)C(=O)N[C@@H]([C@@H](C)O)C(=O)N1CCC[C@@H]1C(=O)N1C[C@@H](NC(=O)COCCOCC(=O)NC[C@H]3OC[C@H](Nc4cccc(C(F)(F)F)n4)[C@@H](O)[C@H]3O)C[C@H]1C(=O)N[C@@H](CC(=O)O)C(=O)N2 [compound 25]	500 to 1000 nM	< 100 nM	< 100 nM	–	–	–	–	–
CC(C)C[C@@H]1NC(=O)[C@H](Cc2cnc[nH]2)NC(=O)[C@H](Cc2c[nH]c3ccccc23)NC(=O)[C@H](C)NC(=O)[C@@H]2CSSC[C@H](NC(=O)[C@H](Cc3c[nH]c4ccccc34)NC(=O)[C@H](C(C)C)NC(=O)[C@H](CC(C)C)NC(=O)[C@H](CCC(=O)O)NC(=O)CNC1=O)C(=O)N[C@@H]([C@@H](C)O)C(=O)N1CCC[C@@H]1C(=O)N1C[C@@H](NC(=O)c3ccc(N4CCC(CN5CCN(C[C@H]6OC[C@H](Nc7cccc(C(F)(F)F)n7)[C@@H](O)[C@H]6O)CC5)CC4)cc3)C[C@H]1C(=O)N[C@@H](CC(=O)O)C(=O)N2 [compound 26]	< 100 nM	< 100 nM	< 100 nM	< 100 nM	–	–	–	–
CC(C)C[C@@H]1NC(=O)[C@H](Cc2cnc[nH]2)NC(=O)[C@H](Cc2c[nH]c3ccccc23)NC(=O)[C@H](C)NC(=O)[C@@H]2CSSC[C@H](NC(=O)[C@H](Cc3c[nH]c4ccccc34)NC(=O)[C@H](C(C)C)NC(=O)[C@H](CC(C)C)NC(=O)[C@H](CCC(=O)O)NC(=O)CNC1=O)C(=O)N[C@@H]([C@@H](C)O)C(=O)N1CCC[C@@H]1C(=O)N1C[C@@H](NC(=O)c3ccc(N4CCC(CN5CCN(C[C@H]6OC[C@H](Nc7nc(C(F)(F)F)ccc7F)[C@@H](O)[C@H]6O)CC5)CC4)cc3)C[C@H]1C(=O)N[C@@H](CC(=O)O)C(=O)N2 [compound 27]	< 100 nM	< 100 nM	< 100 nM	< 100 nM	–	–	–	–
CC(C)C[C@@H]1NC(=O)[C@H](Cc2cnc[nH]2)NC(=O)[C@H](Cc2c[nH]c3ccccc23)NC(=O)[C@H](C)NC(=O)[C@@H]2CSSC[C@H](NC(=O)[C@H](Cc3c[nH]c4ccccc34)NC(=O)[C@H](C(C)C)NC(=O)[C@H](CC(C)C)NC(=O)[C@H](CCC(=O)O)NC(=O)CNC1=O)C(=O)N[C@@H]([C@@H](C)O)C(=O)N1CCC[C@@H]1C(=O)N1C[C@H](NC(=O)COCCOCC(=O)NC[C@H]3OC[C@H](Nc4cccc(C(F)(F)F)n4)[C@@H](O)[C@H]3O)C[C@H]1C(=O)N[C@@H](CC(=O)O)C(=O)N2 [compound 28]	< 100 nM	< 100 nM	–	< 100 nM	> 1100 nM	–	–	–
CC(C)C[C@@H]1NC(=O)[C@H](Cc2cnc[nH]2)NC(=O)[C@H](Cc2c[nH]c3ccccc23)NC(=O)[C@H](C)NC(=O)[C@@H]2CSSC[C@H](NC(=O)[C@H](Cc3c[nH]c4ccccc34)NC(=O)[C@H](C(C)C)NC(=O)[C@H](CC(C)C)NC(=O)[C@H](CCC(=O)O)NC(=O)CNC1=O)C(=O)N[C@@H]([C@@H](C)O)C(=O)N1CCC[C@@H]1C(=O)N1C[C@H](NC(=O)c3ccc(N4CCC(CN5CCN(C[C@H]6OC[C@H](Nc7cccc(C(F)(F)F)n7)[C@@H](O)[C@H]6O)CC5)CC4)cc3)C[C@H]1C(=O)N[C@@H](CC(=O)O)C(=O)N2 [compound 29]	< 100 nM	< 100 nM	100 to 500 nM	< 100 nM	–	–	–	–
CC(C)C[C@@H]1NC(=O)[C@H](Cc2cnc[nH]2)NC(=O)[C@H](Cc2c[nH]c3ccccc23)NC(=O)[C@H](C)NC(=O)[C@@H]2CSSC[C@H](NC(=O)[C@H](Cc3c[nH]c4ccccc34)NC(=O)[C@H](C(C)C)NC(=O)[C@H](CC(C)C)NC(=O)[C@H](CCC(=O)O)NC(=O)CNC1=O)C(=O)N[C@@H]([C@@H](C)O)C(=O)N1CCC[C@@H]1C(=O)N1C[C@H](NC(=O)c3ccc(N4CCC(CN5CCN(C[C@H]6OC[C@H](Nc7nc(C(F)(F)F)ccc7F)[C@@H](O)[C@H]6O)CC5)CC4)cc3)C[C@H]1C(=O)N[C@@H](CC(=O)O)C(=O)N2 [compound 30]	< 100 nM	100 to 500 nM	100 to 500 nM	< 100 nM	–	–	–	–
CC(C)C[C@@H]1NC(=O)[C@H](Cc2cnc[nH]2)NC(=O)[C@H](Cc2c[nH]c3ccccc23)NC(=O)[C@H](C)NC(=O)[C@@H]2CSSC[C@H](NC(=O)[C@H](Cc3c[nH]c4ccccc34)NC(=O)[C@H](C(C)C)NC(=O)[C@H](CC(C)C)NC(=O)[C@H](CCC(=O)O)NC(=O)CNC1=O)C(=O)N[C@@H]([C@@H](C)O)C(=O)N1CCC[C@@H]1C(=O)N1C[C@@H](NC(=O)c3ccc(N4CCC(CN5CCN(C[C@H]6OC[C@H](Nc7ccnc(C(F)(F)F)n7)[C@@H](O)[C@H]6O)CC5)CC4)cc3)C[C@H]1C(=O)N[C@@H](CC(=O)O)C(=O)N2 [compound 31]	< 100 nM	< 100 nM	< 100 nM	< 100 nM	–	–	–	–
CC(C)C[C@@H]1NC(=O)[C@H](Cc2cnc[nH]2)NC(=O)[C@H](Cc2c[nH]c3ccccc23)NC(=O)[C@H](C)NC(=O)[C@@H]2CSSC[C@H](NC(=O)[C@H](Cc3c[nH]c4ccccc34)NC(=O)[C@H](C(C)C)NC(=O)[C@H](CC(C)C)NC(=O)[C@H](CCC(=O)O)NC(=O)CNC1=O)C(=O)N[C@@H]([C@@H](C)O)C(=O)N1CCC[C@@H]1C(=O)N1C[C@H](NC(=O)c3ccc(N4CCC(CN5CCN(C[C@H]6OC[C@H](Nc7ccnc(C(F)(F)F)n7)[C@@H](O)[C@H]6O)CC5)CC4)cc3)C[C@H]1C(=O)N[C@@H](CC(=O)O)C(=O)N2 [compound 32]	< 100 nM	< 100 nM	< 100 nM	< 100 nM	–	–	–	–
CC(C)C[C@@H]1NC(=O)[C@H](Cc2cnc[nH]2)NC(=O)[C@H](Cc2c[nH]c3ccccc23)NC(=O)[C@H](C)NC(=O)[C@@H](NC(=O)[C@H](CC(=O)O)NC(=O)CCOCCCCOCCCCOCCCCOCCNC(=O)CCCc2cn(CCCCCC(=O)NC(COCCC(=O)NCCOCCOCCOCCOC[C@H]3OC[C@H](Nc4nccc(C(F)(F)F)n4)C[C@H]3O)COCCC(=O)NCCOCCOCCOCCOC[C@H]3OC[C@H](Nc4nccc(C(F)(F)F)n4)C[C@H]3O)nn2)CSSC[C@@H](C(=O)N[C@H](C(N)=O)[C@@H](C)O)NC(=O)[C@H](Cc2c[nH]c3ccccc23)NC(=O)[C@H](C(C)C)NC(=O)[C@H](CC(C)C)NC(=O)[C@H](CCC(=O)O)NC(=O)CNC1=O [compound 92]	–	–	–	–	–	> 1000 nM	> 1000 nM	> 1000 nM
CC(C)C[C@@H]1NC(=O)[C@H](Cc2cnc[nH]2)NC(=O)[C@H](Cc2c[nH]c3ccccc23)NC(=O)[C@H](C)NC(=O)[C@@H](NC(=O)[C@H](CC(=O)O)NC(=O)CCOCCOCCOCCOCCNC(=O)CCCc2cn(CCCCCC(=O)NC(COCCC(=O)NCCOCCOCCOCCOC[C@H]3CO[C@H](Nc4cncc(C(F)(F)F)n4)[C@@H](O)[C@H]3O)(COCCC(=O)NCCOCCOCCOCCOC[C@H]3OC[C@H](Nc4nccc(C(F)(F)F)n4)[C@@H](O)[C@H]3O)COCCC(=O)NCCOCCOCCOCCOC[C@H]3OC[C@H](Nc4nccc(C(F)(F)F)n4)[C@@H](O)[C@H]3O)nn2)CSSC[C@@H](C(=O)N[C@H](C(N)=O)[C@@H](C)O)NC(=O)[C@H](Cc2c[nH]c3ccccc23)NC(=O)[C@H](C(C)C)NC(=O)[C@H](CC(C)C)NC(=O)[C@H](CCC(=O)O)NC(=O)CNC1=O [compound 94]	–	–	–	–	–	< 100 nM	< 100 nM	< 100 nM
